Consider twelve compounds from PubChem BioAssay (NCI).

Each structure is given as a SMILES string.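 Following 48 hours of exposure in 96-well plates, responses at five concentrations were used to interpolate endpoints linearly. GI50 = concentration required for 50% inhibition of growth. TGI: total growth inhibition.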

What all share (assay): growth of human tumour cells (NCI), 48 h
Experiment [1] has as its system NCI/ADR-RES ovarian.
Experiment [2] concerns OVCAR-3 ovarian.
In experiment [3] the test system is A498 renal.
Experiment [4] relates to EKVX NSCLC.
Experiment [5] relates to SF-295 CNS.
In experiment [6] the test system is OVCAR-5 ovarian.
In experiment [7] the test system is NCI-H23 lung.
The subject of experiment [8] is MDA-MB-231 breast.
In experiment [9] the test system is SK-MEL-2 melanoma.
Experiment [10] concerns SK-MEL-28 melanoma.

Consider `FC1=C2C3CCC(C3)C2C1(F)F` (stereo unspecified), for which the TGI in experiment [1], in experiment [2], in experiment [3], in experiment [4], in experiment [5] and in experiment [6] was above 100 µM each time. For the same compound, the TGI in [7], in [8], in experiment [9] and in [10] was above 100 µM each time.

Take `C=C1CCC[C@@H](C)C(O)[C@@H]2OC(=O)C(=C)[C@@H]2C[C@@H](OC(C)=O)[C@@]2(C)CC[C@@H]1O2` (stereo partly specified): the TGI in experiment [1] was determined as 19.3 µM; in [2] it was 11.5 µM; in experiment [3] it was 19.2 µM; in experiment [4], 15.1 µM; in [5], 38.5 µM; in experiment [6], 16.1 µM. In addition, the TGI in [7] stood at 15.2 µM; in experiment [8], 16.3 µM; in experiment [9], 15.8 µM; in experiment [10], 15.1 µM.

On to `COc1ccc(CCNC(=O)Cc2ccccc2CO)cc1OC`, for which the TGI in [1], in experiment [2], in experiment [3], in experiment [4], in experiment [5] and in [6] was above 100 µM in each case. For the same compound, the TGI in experiment [7], in experiment [8], in experiment [9] and in experiment [10] was above 100 µM throughout.

For the compound `Oc1ccc(C(O)C2CCCCN2)cc1O` (stereo unspecified), the TGI in experiment [1], in experiment [2], in [3], in experiment [4], in experiment [5] and in experiment [6] was above 100 µM each time. The TGI in experiment [7], in [8], in experiment [9] and in [10] was above 100 µM in each case.

For `COC(=O)c1sc(=O)sc1SCc1cccc(CSc2sc(=O)sc2C(=O)OC)c1`, the TGI in experiment [1], in experiment [2], in experiment [3], in [4], in [5] and in [6] was above 100 µM throughout. Besides, the TGI in [7] was above 100 µM; in [8], 67.4 µM; in experiment [9], above 100 µM; in [10] it was above 100 µM.

As to `COC1CC(C)(NC(=O)C(F)(F)F)C2OC(c3ccccc3)OCC2O1` (stereo unspecified), the TGI in [1], in [2], in experiment [3], in experiment [4], in experiment [5] and in experiment [6] was above 100 µM throughout. For the same compound, the TGI in experiment [7], in experiment [8] and in experiment [10] was above 100 µM throughout.

Consider `CC(C)(CO[C@H]1C[C@H]2CC[C@@]1(C)C2(C)C)[N+](=O)[O-]`, for which the TGI is 90.3 µM in experiment [1]; 56.5 µM in [2]; 51.8 µM in experiment [3]; 46.2 µM in experiment [4]; 33.9 µM in [5]; 33.9 µM in experiment [6]. In addition, the TGI in experiment [7] stood at 65.6 µM; in [8], 34.6 µM; in experiment [9] it was 31.3 µM; in experiment [10], 34.9 µM.

Turning to `C=C(NC(=O)C(=C)NC(=O)c1ccc2c(n1)-c1coc(n1)C(=C)NC(=O)C(=C)NC(=O)c1nc(oc1C)C(=C)NC(=O)C(C(C)(C)O)NC(=O)C(=C)NC(=O)c1coc(n1)/C(=C/C)NC(=O)[C@H]([C@@H](C)O)NC(=O)c1csc-2n1)C(N)=O` (stereo partly specified), the TGI in experiment [1], in experiment [2], in experiment [3], in experiment [4], in experiment [5] and in experiment [6] was above 87.5 µM in each case. Also, the TGI in [7], in experiment [8], in experiment [9] and in experiment [10] was above 87.5 µM in each case.

For the compound `O=C1[C@@H]2[C@@H](CN3CN(c4ccccc4)N=C(c4ccccc4)[C@@]23c2ccccc2)C(=O)N1c1ccccc1`, the TGI in experiment [1] came out at 49.2 µM; in experiment [2] it was 21.2 µM; in [3], 36.6 µM; in experiment [4], 11 µM; in experiment [5], 30.2 µM; in experiment [6] it was 10.4 µM. Further, the TGI in experiment [7] was 23.6 µM; in experiment [8], 16.6 µM; in experiment [9] it was 40.3 µM; in experiment [10], 26 µM.

Regarding `CCOC(=O)NC(=S)N(CC(=O)c1cc(OC)c(OC)c(OC)c1)c1ccc(Cl)cc1`, the GI50 in [1] was 56.5 µM; in [2] it was above 100 µM; in [3], 90.1 µM; in experiment [4] it was 62.4 µM; in experiment [5] it was 76.7 µM; in experiment [7] it was above 100 µM. Also, the GI50 in experiment [8] was 45.9 µM; in experiment [9], 47.4 µM; in experiment [10], 75.8 µM. Besides, the TGI in experiment [1], in [2], in experiment [3], in experiment [4], in experiment [5] and in experiment [7] was above 100 µM throughout. The TGI in experiment [8], in experiment [9] and in [10] was above 100 µM throughout.

Regarding `C[C@]12CC[C@H]3[C@@H](CC=C4C[C@@H](N5CCCC5)CC[C@@]43C)[C@@H]1C[C@H](N1CCCCC1)[C@@H]2O`, the TGI in experiment [1], in experiment [2], in [3], in experiment [4], in experiment [5] and in experiment [6] was above 100 µM throughout. The TGI in [7], in experiment [8] and in experiment [10] was above 100 µM throughout.

With `CC(=O)CC1(CBr)Nc2ccc([N+](=O)[O-])cc2NC1=O` (stereo unspecified), the TGI in experiment [1], in experiment [2], in [3], in experiment [4], in experiment [5] and in [6] was above 100 µM each time. The TGI in [7], in experiment [8], in experiment [9] and in experiment [10] was above 100 µM throughout.
